Measured values taken from the Kinase Knowledgebase extract (Sharma et al. 2016).

Legend:
CDK2 = CDK2 (UniProt P24941); assay: Enzyme Assay
CDK2 (human) = CDK2 (human) (UniProt P24941); assay: Cell-Based Assay

Row | Structure (SMILES) | IC50 (CDK2) [µM] | IC50 (CDK2 (human); hct 116) [µM] | IC50 (CDK2 (human); mda-mb-435) [µM] | IC50 (CDK2 (human); sw480) [µM]
1 | Nc1ccc2c(c1)C(c1ccccc1Cl)=Nc1c[nH]nc1N2 | 1 to 9.99 | 10 to 30 | 10 to 30 | 10 to 30
2 | O=[N+]([O-])c1ccc2c(c1)C(c1ccccc1Cl)=Nc1c(n[nH]c1-[o+]1ccnn1)N2 | 10 to 30 |  | 10 to 30 | 
3 | Fc1ccc2c(c1)C(c1ccccc1F)=Nc1c[nH]nc1N2 | 1 to 9.99 |  |  | 10 to 30
4 | Cc1ccsc1-c1[nH]nc2c1N=C(c1ccccc1Cl)c1cc([N+](=O)[O-])ccc1N2 | 0.01 to 0.99 | 10 to 30 |  | 
5 | Fc1ccccc1C1=Nc2c[nH]nc2Nc2ccccc21 | 1 to 9.99 | 10 to 30 |  | 10 to 30
6 | O=[N+]([O-])c1ccc2c(c1)C(c1ccccc1Cl)=Nc1c(n[nH]c1Cc1ccccc1)N2 | 1 to 9.99 | 10 to 30 | 10 to 30 | 10 to 30
7 | O=[N+]([O-])c1ccc2c(c1)C(c1ccccc1Cl)=Nc1c(n[nH]c1-c1ccc(-n3cccc3)cc1)N2 | 10 to 30 | 10 to 30 |  | 
8 | CS(=O)(=O)c1ccc2c(c1)C(c1ccccc1)=Nc1c[nH]nc1N2 | 1 to 9.99 | 10 to 30 |  | 
9 | O=[N+]([O-])c1ccc2c(c1)C(c1ccccc1Cl)=Nc1c(n[nH]c1-c1cccc(C(F)(F)F)c1)N2 | 10 to 30 | 10 to 30 |  | 
10 | CCOC(=O)c1[nH]nc2c1N=C(c1ccccc1Cl)c1cc([N+](=O)[O-])ccc1N2 | 1 to 9.99 |  | 10 to 30 | 
11 | c1ccc(C2=Nc3c[nH]nc3Nc3ccccc32)cc1 | 1 to 9.99 | 10 to 30 |  | 10 to 30
12 | O=[N+]([O-])c1ccc2c(c1)C(c1ccccc1Cl)=Nc1c(n[nH]c1-c1ccccc1C(F)(F)F)N2 | 10 to 30 |  |  | 10 to 30
13 | O=[N+]([O-])c1ccc2c(c1)C(c1ccccc1Cl)=Nc1c(n[nH]c1-[n+]1ccc[nH]1)N2 | 0.01 to 0.99 |  | 10 to 30 | 
14 | O=[N+]([O-])c1ccc2c(c1)C(c1ccccc1Cl)=Nc1c(n[nH]c1-c1cc3ccccc3[nH]1)N2 | 1 to 9.99 | 10 to 30 |  | 10 to 30
15 | O=[N+]([O-])c1ccc2c(c1)C(c1ccccc1Cl)=Nc1c(n[nH]c1-c1cccs1)N2 | 0.01 to 0.99 | 10 to 30 |  | 10 to 30
16 | Clc1ccc2c(c1)C(c1ccccc1Cl)=Nc1c[nH]nc1N2 | 10 to 30 |  |  | 
17 | Cc1ccc(-c2[nH]nc3c2N=C(c2ccccc2Cl)c2cc([N+](=O)[O-])ccc2N3)cc1 | 1 to 9.99 |  |  | 
18 | O=[N+]([O-])c1ccc2c(c1)C(c1ccccc1Cl)=Nc1c(n[nH]c1-c1ccccc1[N+](=O)[O-])N2 | 10 to 30 |  |  | 
19 | O=[N+]([O-])c1ccc2c(c1)C(c1ccccc1Cl)=Nc1c(n[nH]c1-c1cc3ccccc3o1)N2 | 1 to 9.99 | 10 to 30 |  | 
20 | O=[N+]([O-])c1ccc2c(c1)C(c1ccccc1)=Nc1c(n[nH]c1-c1cccnc1)N2 | 1 to 9.99 |  |  | 
21 | O=[N+]([O-])c1ccc2c(c1)C(c1ccccc1Cl)=Nc1c(n[nH]c1-c1ccc3ccccc3c1)N2 | 1 to 9.99 |  |  | 
22 | Cc1cccc(-c2[nH]nc3c2N=C(c2ccccc2Cl)c2cc([N+](=O)[O-])ccc2N3)c1 | 1 to 9.99 |  |  | 
23 | Fc1ccccc1C1=Nc2c[nH]nc2Nc2ccc(I)cc21 | 1 to 9.99 |  |  | 
24 | O=C(c1ccc2c(c1)C(c1ccccc1F)=Nc1c[nH]nc1N2)N(CCO)CCO | 1 to 9.99 |  |  | 
25 | Cc1ccccc1-c1[nH]nc2c1N=C(c1ccccc1Cl)c1cc([N+](=O)[O-])ccc1N2 | 1 to 9.99 | 10 to 30 |  | 10 to 30
26 | Cc1ccc(-c2[nH]nc3c2N=C(c2ccccc2Cl)c2cc([N+](=O)[O-])ccc2N3)s1 | 1 to 9.99 |  |  | 
27 | Cc1[nH]nc2c1N=C(c1ccccc1)c1cc(I)ccc1N2 | 1 to 9.99 |  |  | 10 to 30
28 | O=[N+]([O-])c1ccc2c(c1)C(c1ccccc1)=Nc1c(n[nH]c1-c1ccc3c(c1)OCO3)N2 | 10 to 30 |  |  | 
29 | O=[N+]([O-])c1ccc2c(c1)C(c1ccccc1Cl)=Nc1c(n[nH]c1CCc1ccccc1)N2 | 1 to 9.99 | 10 to 30 | 10 to 30 | 10 to 30
